# Measurements reported in US11827629B2, “CDGSH iron sulfur domain 2 activators and use thereof” (National Health Research Institutes, priority 2021, dated 2023).
# System: Male C57BL/6 mice
# Assay: In vivo protection against doxorubicin-induced cardiotoxicity (ECG, echocardiography)
# Conditions: 1 mg/kg i.p. twice a day for 2 days, doxorubicin 25 mg/kg i.p., ECG day 4, heart echo day 5
# Experimental: Compound 28 was evaluated for protecting against doxorubicin-induced cardiotoxicity in mice.
# Male C57BL/6 mice between 7 and 8 months old were treated with Compound 28 (at a dosage of 1 mg/kg) or a vehicle (1.5 wt % of DMF and 3 wt % of Cremophor® EL in PBS) via intraperitoneal injection (i.p.) twice a day for 2 days. At day 0, 1 hour after the treatment with Compound 28, doxorubicin (25 mg/kg, i.p.) or another vehicle (10% DMSO in normal saline) was injected into mice.
# Electrocardiogram (ECG) and heart echo on day 4 and day 5 respectively were used as indications of cardiac function. […]
# Functional test of heart using ECG was performed as described in Yeh et al., PLoS Biol. 2019, 17, e3000508. […] Continuous 5-minute ECGs were obtained using subcutaneous electrodes attached at the four limbs and recorded with PowerLab® data acquisition system (model ML866, ADInstruments, Colorado Springs, CO) and Animal Bio Amp® (model ML136, ADInstruments). ECG analysis was performed in an unbiased fashion where 1500 beats were analyzed using LabChart® 7 Pro version 7.3.1 (ADInstruments, Inc). […]
# Transthoracic mouse echocardiography was used to provide noninvasive imaging of the heart on a VisualSonics® VeVo® 2100 imaging system (VisualSonics, Toronto, Ontario, Canada). […] Body temperature was maintained and monitored at 36° C. to 37° C. on a heated pad (TC-1000, CWE Inc. USA). ECGs were continuously monitored. […]
compound,measurement,value
"O=C(CS(=O)(=O)c1nccs1)N1Cc2ccccc2C1 [Compound 28, 1-(1,3-dihydro-2H-isoindol-2-yl)-2-(1,3-thiazol-2-ylsulfonyl)ethanone]",protection against doxorubicin-induced cardiotoxicity,protected against doxorubicin-induced cardiotoxicity
